Data on four compounds can be found in patent publication US20250032477A1, “COMPOUNDS, PHARMACEUTICAL COMPOSITIONS, AND METHODS FOR THE TREATMENT, PREVENTION, OR MANAGEMENT OF HYPERPROLIFERATIVE DISORDERS” (VINCERX PHARMA GMBH, priority 2021, published 2025).

Where two headings read alike, the source gives them in different places.

One data set deals with 786-O. Description: Cytotoxicity in vitro in the presence and absence of elastase (MTT). The class given is cell-based, human. The essentials:
(§1)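 Cells seeded 24 h beforehand, then treated in triplicate with compound (10^−5 to 10^−13 M) alone or with 10 nM elastase for 72 h at 37 °C. Proliferation measured by MTT (4 h reagent, overnight lysis, absorbance 570 nm), normalised to untreated cells.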

Data set [1] concerns HT29. Described as above. It is filed as cell-based, human. The essentials:
as §1

The test system of data set [2] is NCI H292. Described as above. The class given is cell-based, human. The essentials: as §1
Data set [3] relates to SUM149. Described as above. It is filed as cell-based. The essentials: as §1
The format of data set [4] is physicochemical. From the text: pH dependent ring-opening by hydrolysis of the lactone ring is an issue in the camptothecin class of agents. It is a pH dependent equilibrium between closed lactone form and ring-opened hydroxy acid form which is shifted to the closed ring at acidic pH and to the opened form under basic conditions. Only the lactone form is active. […] The closed and hydrolyzed open forms are differentiable by mass using the LC-MS methods described herein.
Method for acidic eluent: System MS: Waters TOF instrument; System UPLC: Waters Acquity I-CLASS; Column: Waters Acquity UPLC HSS T3 1.8 μm 50×1 mm; Eluent A: 1 L Water+0.100 ml 99% Formic acid (pH 3.4); Eluent B: 1 L Acetonitrile+0.100 ml 99% Formic acid; Gradient: 0.0 min 90% A→1.2 min 5% A→2.0 min 5% A Oven: 50° C.; Flow: 0.40 ml/min; UV-Detection: 210 nm.
Method for basic eluent: System MS: Thermo Scientific FT-MS; System UHPLC+: Thermo Scientific UltiMate 3000; Column: Waters, BEH c18 1.7μ, 2.1×50 mm, Eluent A: 1 L Water+1.0 mL (25% Ammonia) (pH of eluent A=10.2); Eluent B: 1 L Acetonitrile; Gradient: 0.0 min 5% B→2.5 min 95% B→3.5 min 95% B; Oven: 50° C.; Flow: 0.90 ml/min; UV-Detection: 210 nm/Optimum Integration Path 210-300 nm.

The test system of data set [5] is HT29. Kind of data set: Cytotoxicity in vitro in the presence and absence of legumain. The class given is cell-based. The note with it: Homo sapiens.
Data set [6] deals with NCI H292. The description is as above. It is filed as cell-based. The note with it: Homo sapiens.
Data set [7] has as its system SUM149. The description is as above. It is filed as cell-based.

Regarding `CCCNC(=O)Nc1cccc(S(=O)(=O)Nc2cccc([C@@H](CC(=O)[O-])NC(=O)Nc3ccc(NC(=O)NCCOCCOCCOCCC(=O)N[C@@H](CC(=O)[O-])C(=O)N4CCC[C@H]4C(=O)N[C@H](C(=O)O[C@]4(CC)C(=O)OCc5c4cc4n(c5=O)Cc5c-4nc4cc(F)c(C)c6c4c5[C@@H](NC(C)=O)CC6)C(C)C)cc3)c2)c1.[Na+].[Na+]` [Compound 2, disodium (1S,9S)-1-acetamido-9-ethyl-5-fluoro-4-methyl-10,13-dioxo-2,3,9,10,13,15-hexahydro-1H,12H-benzo[de]pyrano[3′,4′:6,7]indolizino[1,2-b]quinolin-9-yl 1-[(2S)-2-(carboxylatomethyl)-17-{4-[({(1R)-2-carboxylato-1-[3-({3-[(propylcarbamoyl)amino]benzene-1-sulfonyl}amino)phenyl]ethyl}carbamoyl)amino]anilino}-4,17-dioxo-7,10,13-trioxa-3,16-diazaheptadecanan-1-oyl]-L-prolyl-L-valinate], the IC50 in the data set with 786-O (786-O cells, with 10 nM elastase, 72 h, MTT, read-out: 786-O IC50 w elastase) was 0.01 to 0.1 nM; in the data set on 786-O (786-O cells, without elastase, 72 h, MTT, read-out: 786-O IC50 w/o), 10 to 100 nM; in the data set with HT29 [1] (HT29 cells, with 10 nM elastase, 72 h, MTT, read-out: HT29 IC50 w elastase) it was 0.1 to 1 nM; with HT29 [1] (HT29 cells, without elastase, 72 h, MTT, read-out: HT29 IC50 w/o), > 100 nM; with NCI H292 [2] (NCI H292 cells, with 10 nM elastase, 72 h, MTT, read-out: NCI H292 IC 50 w elastase), 0.1 to 1 nM; with NCI H292 [2] (NCI H292 cells, without elastase, 72 h, MTT, read-out: NCI H292 IC 50 w/o) it was 1.1 to 10 nM. The IC50 was 0.01 to 0.1 nM in the data set with SUM149 [3] (SUM149 cells, with 10 nM elastase, 72 h, MTT, read-out: SUM149 IC50 w elastase) and 1.1 to 10 nM with SUM149 [3] (SUM149 cells, without elastase, 72 h, MTT, read-out: SUM149 IC50 w/o). The “Lactone ring form detected by LC-MS, acidic eluent” value in data set [4] (acidic eluent (pH 3.4), UV and mass detection) is “only the closed form (201)”. Moreover, the “Lactone ring form detected by LC-MS, basic eluent” value in data set [4] (basic eluent (pH of eluent A=10.2), UV and mass detection) is reported as “No open form (203) was detected”.

`CCCNC(=O)Nc1cccc(S(=O)(=O)Nc2cccc([C@@H](CC(=O)O)NC(=O)Nc3ccc(NC(=O)NCCOCCOCCOCCC(=O)N[C@@H](CC(=O)O)C(=O)N4CCC[C@H]4C(=O)N[C@H](C(=O)O[C@]4(CC)C(=O)OCc5c4cc4n(c5=O)Cc5c-4nc4cc(F)c(C)c6c4c5[C@@H](N)CC6)C(C)C)cc3)c2)c1` [Compound 4, (1S,9S)-1-amino-9-ethyl-5-fluoro-4-methyl-10,13-dioxo-2,3,9,10,13,15-hexahydro-1H,12H-benzo[de]pyrano[3′,4′:6,7]indolizino[1,2-b]quinolin-9-yl N-(14-{4-[({(1R)-2-carboxy-1-[3-({3-[(propylcarbamoyl)amino]benzene-1-sulfonyl}amino)phenyl]ethyl}carbamoyl)amino]anilino}-14-oxo-4,7,10-trioxa-13-azatetradecanan-1-oyl)-L-alpha-aspartyl-L-prolyl-L-valinate]: the IC50 in the data set with 786-O (read-out: 786-O IC50 w elastase) lay within 0.01 to 0.1 nM; in the data set on 786-O (read-out: 786-O IC50 w/o), 1.1 to 10 nM; in the data set with HT29 [1] (read-out: HT29 IC50 w elastase) it was 0.01 to 0.1 nM; in the data set on HT29 [1] (read-out: HT29 IC50 w/o), 10 to 100 nM; in the data set on NCI H292 [2] (read-out: NCI H292 IC 50 w elastase) it was 0.01 to 0.1 nM; in the data set with NCI H292 [2] (read-out: NCI H292 IC 50 w/o), 1.1 to 10 nM. Moreover, the IC50 in the data set with SUM149 [3] (read-out: SUM149 IC50 w elastase) was < 0.01 nM; with SUM149 [3] (read-out: SUM149 IC50 w/o) it was 1.1 to 10 nM. Also, in data set [4] (pH 3.4), the “Lactone ring form detected by LC-MS, acidic eluent” value is recorded as “only the closed form (301) was detected”.

With `CC[C@@]1(O)C(=O)OCc2c1cc1n(c2=O)Cc2c-1nc1cc(F)c(C)c3c1c2[C@@H](NC(=O)[C@H](CC(N)=O)NC(=O)Cc1ccncc1)CC3` [Compound 10, N^1-[(1S,9S)-9-ethyl-5-fluoro-9-hydroxy-4-methyl-10,13-dioxo-2,3,9,10,13,15-hexahydro-1H,12H-benzo[de]pyrano[3′,4′:6,7]indolizino[1,2-b]quinolin-1-yl]-N^2-[(pyridin-4-yl)acetyl]-L-aspartamide], the IC50 was > 100 nM in the data set on HT29 [5] (HT-29, read-out: HT29 IC50 w legumain); > 100 nM with HT29 [5] (HT-29, read-out: HT29 IC50 w/o); > 100 nM with NCI H292 [6] (NCI-H292, read-out: NCI H292 IC50 w legumain); > 100 nM with NCI H292 [6] (NCI-H292, read-out: NCI H292 IC50 w/o); > 100 nM in the data set on SUM149 [7] (SUM149, read-out: SUM149 IC50 w legumain); > 100 nM in the data set with SUM149 [7] (SUM149, read-out: SUM149 IC50 w/o).

In the case of `CC[C@@]1(O)C(=O)OCc2c1cc1n(c2=O)Cc2c-1nc1cc(F)c(C)c3c1c2[C@@H](NC(=O)[C@H](CC(N)=O)NC(=O)[C@H](C)N(C)C(=O)[C@H](C)NC(=O)Cc1ccncc1)CC3` [Compound 11, N-[(pyridin-4-yl)acetyl]-L-alanyl-N-methyl-L-alanyl-N^1-[(1S,9S)-9-ethyl-5-fluoro-9-hydroxy-4-methyl-10,13-dioxo-2,3,9,10,13,15-hexahydro-1H, 12H-benzo[de]pyrano [3′,4′:6,7]indolizino [1,2-b]quinolin-1-yl]-L-aspartamide], the IC50 was > 100 nM with HT29 [5] (HT-29, HT29 cells, with legumain, read-out: HT29 IC50 w legumain); > 100 nM in the data set with HT29 [5] (HT-29, HT29 cells, without legumain, read-out: HT29 IC50 w/o); 11 to 100 nM with NCI H292 [6] (NCI H292 cells, with legumain, read-out: NCI H292 IC50 w legumain); 11 to 100 nM with NCI H292 [6] (NCI H292 cells, without legumain, read-out: NCI H292 IC50 w/o); 1.1 to 10 nM with SUM149 [7] (SUM149 cells, with legumain, read-out: SUM149 IC50 w legumain); 1.1 to 10 nM with SUM149 [7] (SUM149 cells, without legumain, read-out: SUM149 IC50 w/o).
